Data: ChEMBL document CHEMBL1201862, “PubChem BioAssay data set” (2004)
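1) Cells in 96-well plates. 2) Compound, 48 h, 5 concentrations. 3) Linear interpolation between surrounding doses. 4) Unreached endpoint = highest concentration. The concentration for 50% growth inhibition is given as GI50.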 Calls of active or inactive are those of the source. Cut-off read from the data, not from the text of the source: active = GI50 up to about 1.1 µM and inactive = higher.

Assays:
Experiment in all cases: DTP human tumour cell line panel, 48 h
786-0 = system: 786-0
BT-549 = system: BT-549
CCRF-CEM = system: CCRF-CEM
COLO 205 = system: COLO 205
DLD-1 = system: DLD-1
DMS-114 = system: DMS-114
DMS-273 = system: DMS-273
EKVX = system: EKVX
HCC 2998 = system: HCC 2998
HCT-116 = system: HCT-116
HCT-15 = system: HCT-15
HOP-18 = system: HOP-18
HOP-62 = system: HOP-62
HT-29 = system: HT-29
Hs-578T = system: Hs-578T
IGROV-1 = system: IGROV-1
KM-20L2 = system: KM-20L2
KM12 = system: KM12
LOX IMVI = system: LOX IMVI
M14 = system: M14
M19-MEL = system: M19-MEL
MDA-MB-435 = system: MDA-MB-435
MDA-N = system: MDA-N
MOLT-4 = system: MOLT-4
Malme-3M = system: Malme-3M
NCI-H23 = system: NCI-H23
NCI-H522 = system: NCI-H522
NCI/ADR-RES = system: NCI/ADR-RES
OVCAR-4 = system: OVCAR-4
OVCAR-8 = system: OVCAR-8
PC-3 = system: PC-3
SF-268 = system: SF-268
SF-539 = system: SF-539
SK-MEL-28 = system: SK-MEL-28
SK-MEL-5 = system: SK-MEL-5
SNB-78 = system: SNB-78
SR = system: SR
TK-10 = system: TK-10
UO-31 = system: UO-31
A498 = system: A498
A549 = system: A549
ACHN = system: ACHN
CAKI-1 = system: CAKI-1
HOP-92 = system: HOP-92
K562 = system: K562
LXFL 529 = system: LXFL 529
NCI-H226 = system: NCI-H226
NCI-H460 = system: NCI-H460
OVCAR-3 = system: OVCAR-3
OVCAR-5 = system: OVCAR-5
RPMI-8226 = system: RPMI-8226
RXF 393 = system: RXF 393
SF-295 = system: SF-295
SK-MEL-2 = system: SK-MEL-2
SK-OV-3 = system: SK-OV-3
SN12C = system: SN12C
SNB-19 = system: SNB-19
SNB-75 = system: SNB-75
SW-620 = system: SW-620
U-251 = system: U-251
UACC-257 = system: UACC-257
UACC-62 = system: UACC-62
XF498 = system: XF498

Measured: GI50

CO[C@H]1C[C@@H]2CC[C@@H](C)[C@@](O)(O2)C(=O)C(=O)N2CCCC[C@H]2C(=O)O[C@H]([C@H](C)C[C@@H]2CC[C@@H](O)[C@H](OC)C2)CC(=O)[C@H](C)C=C(C)[C@@H](O)[C@@H](OC)C(=O)[C@H](C)C[C@H](C)/C=C/C=C/C=C1C
active: 786-0 0.108 µM | CCRF-CEM < 0.01 µM | DMS-114 0.1 µM | EKVX < 0.0104 µM | HCC 2998 0.167 µM | HOP-62 < 0.0107 µM | HT-29 0.817 µM | Hs-578T 0.0193 µM | IGROV-1 < 0.01 µM | LOX IMVI 0.0175 µM | M19-MEL 0.1 µM | MOLT-4 0.0272 µM | Malme-3M 0.0243 µM | NCI-H23 0.394 µM | NCI/ADR-RES 0.358 µM | OVCAR-4 < 0.01 µM | OVCAR-8 0.0564 µM | PC-3 0.0211 µM | SF-539 < 0.0111 µM | SK-MEL-28 0.251 µM | SK-MEL-5 0.417 µM | SNB-78 0.1 µM | SR < 0.01 µM | TK-10 0.46 µM | UO-31 < 0.01 µM
inactive: BT-549 1.12 µM | COLO 205 8.24 µM | DLD-1 10 µM | DMS-273 11 µM | HCT-116 5.71 µM | HOP-18 11.8 µM | KM-20L2 16 µM | KM12 5.96 µM | M14 7.55 µM | MDA-MB-435 1.28 µM | MDA-N 1.56 µM | NCI-H522 1.34 µM | SF-268 1.77 µM
0.117 µM: HCT-15

C/C(=N\NC(=O)C[n+]1ccccc1)c1sc(-c2nc(C)c(/C(C)=N/NC(=O)C[n+]3ccccc3)s2)nc1C
37.7 µM: HCT-15
inactive: 786-0 > 100 µM | A498 > 100 µM | A549 > 100 µM | ACHN > 100 µM | CAKI-1 > 100 µM | CCRF-CEM > 10 µM | COLO 205 > 100 µM | DLD-1 > 100 µM | DMS-114 38.3 µM | EKVX > 100 µM | HCC 2998 > 100 µM | HCT-116 68.5 µM | HOP-62 > 100 µM | HOP-92 > 100 µM | HT-29 36.3 µM | IGROV-1 > 100 µM | K562 41.1 µM | KM-20L2 > 100 µM | KM12 > 100 µM | LOX IMVI > 100 µM | LXFL 529 95.9 µM | M14 > 100 µM | M19-MEL > 100 µM | MOLT-4 95.9 µM | Malme-3M > 100 µM | NCI-H226 > 100 µM | NCI-H23 > 100 µM | NCI-H460 > 100 µM | OVCAR-3 > 100 µM | OVCAR-5 > 100 µM | OVCAR-8 > 100 µM | RPMI-8226 43.9 µM | RXF 393 > 100 µM | SF-268 > 100 µM | SF-295 > 100 µM | SF-539 > 100 µM | SK-MEL-28 > 100 µM | SK-MEL-2 > 100 µM | SK-MEL-5 > 100 µM | SK-OV-3 > 100 µM | SN12C > 100 µM | SNB-19 > 100 µM | SNB-75 > 100 µM | SNB-78 > 100 µM | SW-620 > 100 µM | TK-10 > 100 µM | U-251 > 100 µM | UACC-257 > 100 µM | UACC-62 65 µM | UO-31 > 100 µM

COC(=O)C1CCC(=O)N1C(=O)Cc1ccc(OC)cc1 (stereo not drawn)
inactive: A498 > 100 µM | A549 > 100 µM | ACHN > 100 µM | CAKI-1 > 100 µM | COLO 205 > 100 µM | DMS-114 > 100 µM | DMS-273 > 100 µM | EKVX > 100 µM | HCT-116 > 100 µM | HOP-92 > 100 µM | HT-29 > 100 µM | IGROV-1 > 100 µM | KM-20L2 > 100 µM | KM12 > 100 µM | LOX IMVI > 100 µM | LXFL 529 > 100 µM | M14 > 100 µM | M19-MEL > 100 µM | NCI-H226 > 100 µM | NCI-H23 > 100 µM | NCI-H460 > 100 µM | NCI-H522 > 100 µM | OVCAR-3 > 100 µM | OVCAR-4 > 100 µM | OVCAR-5 > 100 µM | OVCAR-8 > 100 µM | SF-268 > 100 µM | SF-295 > 100 µM | SK-MEL-28 > 100 µM | SK-MEL-5 > 100 µM | SK-OV-3 > 100 µM | SN12C > 100 µM | SNB-19 > 100 µM | SNB-75 > 100 µM | SNB-78 > 100 µM | SW-620 > 100 µM | TK-10 > 100 µM | U-251 > 100 µM | UACC-257 > 100 µM | UACC-62 > 100 µM | UO-31 > 100 µM | XF498 > 100 µM
> 100 µM: HCT-15
